Where “and” joins values, the source holds several entries; their conditions need not be identical. Equal values may be shown once. Read-outs that look alike come from different tables or passages of the source.
Test system: panel of 140 standard cancer cell lines
Experiment: ProliFiler-140 cancer cell line screen (CellTiterGlo, 72 h)
Type: cell-based
Procedure: Incubations were performed for 72 h before automated viability readout with CellTiterGlo (Figure 8).
End of Figure S11 (part 5 of 5): ProliFiler-140 cancer cell line screening for cytotoxicity of the prodrugs.
8-data-point dose response curves from CellTiter-Glo® viability readout.
ProliFiler-140 cell line panel part V

COc1cc2cc(C(=O)N3C[C@@H](CCl)c4c3cc(OC(=O)N(CCC(=O)N3CCN(C)CC3)C3CCCCC3)c3ccccc43)[nH]c2c(OC)c1OC [P-CC60-CBI-TMI]
IC50 (786-O (Kidney), read-out: IC50 [M] (ProliFiler-140)): 1.18e-07 M and 1.2e-07 M
IC50 (786-O, read-out: IC50): 1.2e-07 M
IC50 (A172 (Brain), read-out: IC50 [M] (ProliFiler-140)): 5.74e-07 M and 5.7e-07 M
IC50 (A375 (Skin), read-out: IC50 [M] (ProliFiler-140)): 1.64e-07 M and 1.6e-07 M
IC50 (A427 (Lung), read-out: IC50 [M] (ProliFiler-140)): 8.2e-07 M and 8.23e-07 M
IC50 (A431 (Skin), read-out: IC50 [M] (ProliFiler-140)): 2.62e-07 M and 2.6e-07 M
IC50 (A498 (Kidney), read-out: IC50 [M] (ProliFiler-140)): 3e-07 M
IC50 (A498, read-out: IC50): 3e-07 M
IC50 (A549 (Lung), read-out: IC50 [M] (ProliFiler-140)): 7.7e-07 M
IC50 (A549, read-out: IC50): 7.7e-07 M
IC50 (A2058 (Skin), read-out: IC50 [M] (ProliFiler-140)): 1e-07 M and 1.02e-07 M
IC50 (A2780 (Ovary), read-out: IC50 [M] (ProliFiler-140)): 8.9e-08 M and 8.89e-08 M
IC50 (AsPC-1 (Pancreas), read-out: IC50 [M] (ProliFiler-140)): 2.1e-06 M and 2.15e-06 M
IC50 (BEN (Lung), read-out: IC50 [M] (ProliFiler-140)): 1.4e-06 M and 1.42e-06 M
IC50 (BT-20 (Breast), read-out: IC50 [M] (ProliFiler-140)): 1.1e-06 M and 1.11e-06 M
IC50 (BxPC-3 (Pancreas), read-out: IC50 [M] (ProliFiler-140)): 6.62e-07 M and 6.6e-07 M
IC50 (CAKI-1, read-out: IC50): 3.3e-07 M
IC50 (COR-L279 (Lung), read-out: IC50 [M] (ProliFiler-140)): 7.4e-08 M and 7.36e-08 M
IC50 (COV434 (Ovary), read-out: IC50 [M] (ProliFiler-140)): 1.1e-07 M and 1.15e-07 M
IC50 (Caki-1 (Kidney), read-out: IC50 [M] (ProliFiler-140)): 3.29e-07 M and 3.3e-07 M
IC50 (Caki-2 (Kidney), read-out: IC50 [M] (ProliFiler-140)): 1.51e-06 M and 1.5e-06 M
IC50 (Calu-6 (Lung), read-out: IC50 [M] (ProliFiler-140)): 3.42e-07 M and 3.4e-07 M
IC50 (Colo 205 (Colon), read-out: IC50 [M] (ProliFiler-140)): 7.6e-07 M and 7.61e-07 M
IC50 (DLD-1 (Colon), read-out: IC50 [M] (ProliFiler-140)): 7.91e-07 M and 7.9e-07 M
IC50 (DU-145 (Prostate), read-out: IC50 [M] (ProliFiler-140)): 1.8e-07 M and 1.83e-07 M
IC50 (DV90 (Lung), read-out: IC50 [M] (ProliFiler-140)): 9e-08 M and 9.04e-08 M
IC50 (Detroit562 (Head/Neck), read-out: IC50 [M] (ProliFiler-140)): 3.15e-07 M and 3.2e-07 M
IC50 (EFM-19 (Breast), read-out: IC50 [M] (ProliFiler-140)): 9.6e-07 M and 9.62e-07 M
IC50 (EFM-192A (Breast), read-out: IC50 [M] (ProliFiler-140)): 1.8e-06 M and 1.78e-06 M
IC50 (EFO-27 (Ovary), read-out: IC50 [M] (ProliFiler-140)): 9e-07 M
IC50 (EPLC-272H (Lung), read-out: IC50 [M] (ProliFiler-140)): 5.08e-07 M and 5.1e-07 M
IC50 (H4 (Brain), read-out: IC50 [M] (ProliFiler-140)): 8.08e-08 M and 8.1e-08 M
IC50 (H460 (Lung), read-out: IC50 [M] (ProliFiler-140)): 5.1e-08 M and 5.12e-08 M
IC50 (H1299 (Lung), read-out: IC50 [M] (ProliFiler-140)): 7.27e-07 M and 7.3e-07 M
IC50 (H2228 (Lung), read-out: IC50 [M] (ProliFiler-140)): 3.99e-07 M and 4e-07 M
IC50 (HCC38 (Breast), read-out: IC50 [M] (ProliFiler-140)): 1.65e-07 M and 1.7e-07 M
IC50 (HCC202 (Breast), read-out: IC50 [M] (ProliFiler-140)): 9e-07 M and 8.97e-07 M
IC50 (HCC827 (Lung), read-out: IC50 [M] (ProliFiler-140)): 1.4e-06 M and 1.38e-06 M
IC50 (HCC 1569 (Breast), read-out: IC50 [M] (ProliFiler-140)): 9.9e-07 M and 9.93e-07 M
IC50 (HCT116 (Colon), read-out: IC50 [M] (ProliFiler-140)): 4.41e-07 M and 4.4e-07 M
IC50 (HCT116, read-out: IC50): 4.4e-07 M
IC50 (HCT-15 (Colon), read-out: IC50 [M] (ProliFiler-140)): 5.46e-07 M and 5.5e-07 M
IC50 (HCT-15, read-out: IC50): 5.5e-07 M
IC50 (HEC-1-A (Endometrium), read-out: IC50 [M] (ProliFiler-140)): 1.8e-06 M and 1.84e-06 M
IC50 (HEC-1-B (Endometrium), read-out: IC50 [M] (ProliFiler-140)): 3.3e-06 M and 3.29e-06 M
IC50 (HL-60 (Blood), read-out: IC50 [M] (ProliFiler-140)): 1e-07 M and 1.01e-07 M
IC50 (HL-60, read-out: IC50): 1e-07 M
IC50 (HT-29 (Colon), read-out: IC50 [M] (ProliFiler-140)): 1e-06 M and 9.98e-07 M
IC50 (HT-29, read-out: IC50): 1e-06 M
IC50 (HT-1080 (Fibrosarcoma), read-out: IC50 [M] (ProliFiler-140)): 3.2e-07 M
IC50 (Hep3B2.1-7 (Liver), read-out: IC50 [M] (ProliFiler-140)): 1.3e-06 M and 1.34e-06 M
IC50 (Hs 746T (Stomach), read-out: IC50 [M] (ProliFiler-140)): 9.9e-07 M and 9.89e-07 M
IC50 (HuH7 (Liver), read-out: IC50 [M] (ProliFiler-140)): 6.47e-07 M and 6.5e-07 M
IC50 (Hutu 80 (Duodenum), read-out: IC50 [M] (ProliFiler-140)): 5.37e-08 M and 5.4e-08 M
IC50 (Ishikawa (Endometrium), read-out: IC50 [M] (ProliFiler-140)): 2.6e-08 M and 2.61e-08 M
IC50 (J82 (Bladder), read-out: IC50 [M] (ProliFiler-140)): 7.2e-07 M
IC50 (JIMT-1 (Breast), read-out: IC50 [M] (ProliFiler-140)): 1.6e-06 M
IC50 (JVM-3 (Blood), read-out: IC50 [M] (ProliFiler-140)): 3.14e-08 M and 3.1e-08 M
IC50 (Jurkat (Blood), read-out: IC50 [M] (ProliFiler-140)): 9.37e-08 M and 9.4e-08 M
IC50 (K562 (Blood), read-out: IC50 [M] (ProliFiler-140)): 1.1e-06 M and 1.11e-06 M
IC50 (KARPAS 299 (Blood), read-out: IC50 [M] (ProliFiler-140)): 7.07e-07 M and 7.1e-07 M
IC50 (KG-1 (Blood), read-out: IC50 [M] (ProliFiler-140)): 6.22e-07 M and 6.2e-07 M
IC50 (KG-1 a (Blood), read-out: IC50 [M] (ProliFiler-140)): 5.5e-07 M
IC50 (KMS-12-BM (Blood), read-out: IC50 [M] (ProliFiler-140)): 3.43e-07 M and 3.4e-07 M
IC50 (Kato III (Stomach), read-out: IC50 [M] (ProliFiler-140)): 1.6e-06 M and 1.62e-06 M
IC50 (LN229 (Brain), read-out: IC50 [M] (ProliFiler-140)): 7.23e-07 M and 7.2e-07 M
IC50 (LOU-NH91 (Lung), read-out: IC50 [M] (ProliFiler-140)): 3.1e-07 M and 3.07e-07 M
IC50 (LOVO (Colon), read-out: IC50 [M] (ProliFiler-140)): 2.22e-07 M and 2.2e-07 M
IC50 (LP-1 (Blood), read-out: IC50 [M] (ProliFiler-140)): 7.2e-07 M and 7.16e-07 M
IC50 (LnCap (Prostate), read-out: IC50 [M] (ProliFiler-140)): 8.9e-07 M and 8.94e-07 M
IC50 (M07e (Blood), read-out: IC50 [M] (ProliFiler-140)): 1.38e-07 M and 1.4e-07 M
IC50 (MCAS (Ovary), read-out: IC50 [M] (ProliFiler-140)): 8.2e-07 M and 8.18e-07 M
IC50 (MCF-7 (Breast), read-out: IC50 [M] (ProliFiler-140)): 2.1e-07 M and 2.15e-07 M
IC50 (MDA MB 231 (Breast), read-out: IC50 [M] (ProliFiler-140)): 7.4e-07 M
IC50 (MDA MB 435 (Skin), read-out: IC50 [M] (ProliFiler-140)): 1.1e-06 M and 1.08e-06 M
IC50 (MDA-MB-468 (Breast), read-out: IC50 [M] (ProliFiler-140)): 1.5e-07 M and 1.48e-07 M

From article PMC10141580, “Cyclic Dichalcogenides Extend the Reach of Bioreductive Prodrugs to Harness Thiol/Disulfide Oxidoreductases: Applications to seco-Duocarmycins Targeting the Thioredoxin System” (ACS Central Science, 2023)
